Results on three molecules are retold here after BindingDB's records for doi:10.1021/jm00101a006 (University of Illinois, 1992).

The target of test [1] is T1, Urokinase-type plasminogen activator (Homo sapiens, UniProt P00749). The test is described as follows: Compound was tested for the rate constant of deacylation against the enzyme Urokinase-type plasminogen activator. Particulars: read-out: koff (s-1).
Test [2] has as its target T1, Urokinase-type plasminogen activator. The experiment in a line: Compound was tested for the rate constant of deacylation against Urokinase-type plasminogen activator.
For test [3], the target named is T2, Serine protease 1 (Bos taurus, UniProt P00760).
T2 sequence (P00760 whole entry): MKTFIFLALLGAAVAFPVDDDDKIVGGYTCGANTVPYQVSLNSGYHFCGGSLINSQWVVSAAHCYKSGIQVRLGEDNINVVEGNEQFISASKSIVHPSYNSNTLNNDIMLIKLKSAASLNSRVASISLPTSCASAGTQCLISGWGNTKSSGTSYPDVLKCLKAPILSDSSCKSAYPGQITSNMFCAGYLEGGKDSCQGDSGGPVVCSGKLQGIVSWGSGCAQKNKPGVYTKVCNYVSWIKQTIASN
The experiment in a line: Compound was tested for the rate constant of deacylation against the enzyme trypsin.

In test [4] the target is T1, Urokinase-type plasminogen activator. The test is described as follows: Compound was tested for the rate constant of deacylation against Urokinase-type plasminogen activator.

Broadly, the koff is the first-order rate constant of dissociation. As to `NC(N)=Nc1ccc(C2C/C(=C/I)OC(=O)C2NC(=O)c2ccccc2)cc1` (stereo not given), the koff in test [1] and in test [2] was 1.3e-05 s⁻¹ each time.

Turning to `NC(N)=Nc1ccc(C2CC(=O)O/C(=C\I)C2)cc1` (stereo not given), the off-rate (koff) in test [3] worked out at 0.00033 s⁻¹.

As to `C=C1CC(c2ccc(N=C(N)N)cc2)C(NC(=O)c2ccccc2)C(=O)O1` (stereo not given), the koff in test [3] was determined as 0.00025 s⁻¹; in test [4], 3.3e-05 s⁻¹.
